The source of these data is patent EP2999467B1, “USE OF A COMBINATION OF TWO COMPOUNDS FOR THE TREATMENT AND/OR PREVENTION OF BONE DISORDERS” (Institut National de la Recherche Agronomique (INRA), priority 2013, dated 2014).

Read-outs that look alike come from different tables or passages of the source.

Experiment [1] relates to préostéoblastes primaires. Briefly: ALP activity measurement in differentiating osteoblasts. It is filed as cell-based, rats Wistar. As to conditions: Rattus norvegicus, Osteoblast, read-out: activité ALP par rapport à la condition « AA+βGP seuls ». The text has this: (§1) Les préostéoblastes primaires ont été isolés à partir de la calotte crânienne de rats Wistar nouveaux-nés par digestion enzymatique comme précédemment décrit [Declercq, H., Van den Vreken, N., De Maeyer, E., Verbeeck, R., Schacht, E., De Ridder, L., and Cornelissen, M. (2004). Isolation, proliferation and differentiation of osteoblastic cells to study cell/biomaterial interactions: comparison of different isolation techniques and source. Biomaterials 25, 757-68.]. Les précurseurs d'ostéoclastes RAW264.7 ont été obtenus auprès de l'ATCC (Manassas, VA, USA). Les préostéoblastes et les RAW264.7 ont été cultivés dans du milieu α-MEM (Invitrogen, Carlsbad, CA, USA) supplémenté avec 10% de SVF décomplémenté et de 100 unités/ml de pénicilline-streptomycine.
Les préostéoblastes primaires ont été ensemencés à 3500 cellules par puits dans des plaques 96 puits traitées au collagène. Trente-six heures plus tard, les cellules ont été prétraitées avec du DMSO comme témoin ou de la fisétine (1 à 5 µM) pendant 12 heures, puis induites à se différentier avec 25 µg/ml d'acide ascorbique et 5 mM de bêta-glycérophosphate en présence de DMSO ou de fisétine (1 à 5 µM). L'activité enzymatique ALP a été mesurée en cinétique après 0, 5, 7 et 12 jours de traitement avec un changement de milieux tous les 2 jours. Les cellules ont été lysées par des cycles de gel-dégel et les lysats ont subi une homogénéisation dans 200 µl de tampon chlorure de magnésium hexahydrate, di-éthanoamine à un pH de 9,8. Les lysats cellulaires (10 µl) ont été ajoutés à 200 µl de solution de p-nitrophényl phosphate (16,2 mM) et l'absorbance a été mesurée en utilisant un lecteur de microplaques à 405 nm toutes les 90 seconds pendant 30min. Pour chaque échantillon, la concentration de protéines a été analysée pour exprimer les résultats sous forme de µmol de p-nitrophenol/heure/mg de protéines.

The subject of a further experiment is phosphatase alcaline. Briefly: Quantitative RT-PCR, osteoblast differentiation marker: alkaline phosphatase. The settings on record: Rattus norvegicus; for activation at 5 µM: AA+βGP+Fisétine 5µM. The experiment is classed as cell-based, rats Wistar.
Description: as §1
L'extraction des ARN totaux (cellules et fémurs) a été effectuée en utilisant le réactif TRIzol, la transcription inverse (RT) a été réalisée à l'aide du kit de synthèse d'ADNc Dynamo (Thermo Scientific, Waltham, MA, USA) et l'analyse PCR en temps réel a été réalisée avec le Mastercycler ep Realplex2 (Eppendorf, Hambourg, Allemagne). Toutes les valeurs ont été normalisées par la GAPDH. Les séquences des oligos utilisés sont : ALP F 5'-GGCCAGCTACACCACAACA-3' / ALP R 5'-[…] -3' / OCN F 5'-AGACTCCGGCGCTACCTT -3' / OCN R 5'-[…]-3'/ COL1 F 5'-[…]-3' / COL1 R 5'-[…]-3' / GAPDH F 5'-[…]-3' / GAPDH R 5'-[…]-3'

Experiment [2] concerns perte osseuse induite par ovariectomie. Briefly: Ovariectomy-induced bone loss: bone micro-architecture (micro-CT). The experiment is classed as in vivo, souris C57BL/6J. As to the method:
Tout au long de l'étude, les animaux ont été logés dans un environnement contrôlé (12:12 h cycle lumière-obscurité, 20-22 ° C, 50-60% d'humidité relative, 1 souris par cage en plastique avec un accès libre à l'eau. Les souris C57BL/6J ont été livrées 2 semaines avant l'étude pour l'acclimatation à notre environnement sous régime standard semi-purifié. Pour toutes les expériences, les souris de 8 semaines (n=12/groupe) ont été gavées avec le véhicule (1% d'éthanol, 0,2% hydroxypropylcellulose dans de l'eau distillée) ou avec la fisétine (5 à 50 mg/kg dans le véhicule) pendant une semaine. Ensuite, pour l'expérience OVX, les souris ont été pseudo-opérées ou ovariectomisées bilatéralement et ont reçu quotidiennement par gavage le véhicule ou la fisétine pendant 4 semaines. A la fin de l'expérimentation, le sérum, les cornes utérines, les tibias et les fémurs ont été recueillis pour analyse. Pour l'expérience de perte osseuse induite par LPS, le véhicule (PBS) ou le LPS (sérotype 026: B6, 25mg/kg) ont été injectés par voie sous-cutanée au niveau de la calotte crânienne, une fois par semaine pendant 3 semaines sous anesthésie. Durant ces 3 semaines, les souris ont reçu soit le véhicule (1% d'éthanol, 0,2% hydroxypropylcellulose dans de l'eau distillée) soit la fisétine quotidiennement par gavage. A la fin de l'expérimentation, le sérum, les tibias et les fémurs ont été recueillis pour analyse. Des expériences similaires ont été conduites et arrêtés 24 heures après la première injection de LPS et les fémurs ont été prélevés pour extraction des ARNs et l'analyse en qRT-PCR.
Pour effectuer une mesure, l'échantillon a été monté sur un plateau tournant pouvant être déplacé automatiquement dans le sens axial (pas angulaire: 0,675°/reconstruction plage angulaire: 186.30°). Un filtre en aluminium (0,5 mm d'épaisseur) a été placé entre la source de rayons X et l'échantillon. La micro-architecture (spongieuse secondaire) a été analysée en utilisant le rayonnement X micro-CT SkyScan 1072 (BRUKER-microCT, Kontich, Belgique). Des photos de 1024 * 1024 pixels ont été obtenues en utilisant les paramètres 37kV et 215µA. Selon les paramètres de la caméra, les pixels mesurent 5.664µm menant à un voxel de 1.817 * 10-7mm^3. Le calcul des paramètres histomorphométriques a été réalisé en utilisant les logiciels ctan ® et Nrecon ® (version 1.11. Et 1.6.1.7 respectivement).

For the compound `O=c1c(O)c(-c2ccc(O)c(O)c2)oc2cc(O)ccc12` [Fisétine, 3,3',4',7-tétrahydroxyflavone], the activation at 1 µM in experiment [1] (AA+βGP+Fisétine 1 µM) was found to be 32%; in the experiment with phosphatase alcaline (168 h, AA+βGP+Fisétine 1 µM, J7, read-out: expression de la phosphatase alcaline par rapport à la condition « AA+βGP seuls »), 84%; with phosphatase alcaline (336 h, AA+βGP+Fisétine 1µM, J14, read-out: expression de la phosphatase alcaline par rapport à la condition « AA+βGP seuls »), 37%. Besides, the activation at 5 µM came to 87% in experiment [1] (AA+βGP+Fisétine 5µM); 146% with phosphatase alcaline (168 h, J7, read-out: expression de la phosphatase alcaline par rapport à la condition « AA+βGP seuls »); 88% in the experiment with phosphatase alcaline (336 h, J14, read-out: expression de la phosphatase alcaline par rapport à la condition « AA+βGP seuls »). The activation at 2.5 µM in experiment [1] (AA+βGP+Fisétine 2,5µM) worked out at 63%. Besides, the “augmentation de l'épaisseur des trabécules par rapport aux animaux OVX” value in experiment [2] (OVX + Fisétine 25 mg/kg) was 3,55%. In addition, in experiment [2] (OVX + Fisétine 25 mg/kg), the “augmentation du nombre de trabécules par rapport aux animaux OVX” value is on record as 16,31%. Also, the “augmentation du volume osseux/volume total par rapport aux animaux OVX” value in experiment [2] (OVX + Fisétine 25 mg/kg) is 20,37%. Moreover, the “Nombre de trabécules” value in experiment [2] (OVX + Fisétine 25mg/kg, OVX 1.90 ± 0.22) is listed as 2.21 ± 0.12 mm^-1. For the same compound, the “Volume osseux/Volume total” value in experiment [2] (OVX + Fisétine 25mg/kg, OVX 13.40 ± 1.74) was 16.13 ± 0.96%. Besides, the “Epaisseur des trabécules” value in experiment [2] (OVX + Fisétine 25mg/kg, OVX 70.35 ± 1.295) was 72.85 ± 1.563 µm. Also, in experiment [2] (OVX + Fisétine 25mg/kg, OVX 285.68 ± 54,69), the “Espace inter-trabéculaire” value came out at 265.50 ± 29.41 µm.
